In US20040029816A1, “Hepatoprotective activity of 10-O-P-hydroxybenzoyiaucubin” (priority 2002, published 2004):

Key:
[1] = tested on: CCl4 induced hepatic injury; assay: Hepatoprotective activity (in vivo) against CCl4 induced hepatic injury in rats
Excerpt: Treatment of experimental animals with the 033 and 033(1) against CCU induced liver damage reduced the elevated levels of serum GPT, GOT, ALP, bilirubin, TG and hepatic lipid peroxidation and increased the GSH level.

[2] = tested on: GalN induced hepatic injury; assay: Hepatoprotective activity (in vivo) against galactosamine (GalN) induced hepatic injury in rats
Excerpt: The hepatoprotective activity observed with 033 and 033(1) was 59.58 & 44.97, 56.62 & 44.05, 54.28 & 47.66, 57.71 & 66.66, 57.89 & 49.33 percent in serum GPT, GOT, Bilirubin, ALP, and TG respectively and 67.51 & 48.34, 66.56 & 55.13 percent in hepatic lipid peroxidation (LP) and GSH respectively. The same with silymarin was 57.38, 55.40, 60.00, 53.54,46.17, 69.59, 67.18 percent respectively (Table-2). [table]

[3] = liver homogenate, rats, fed p.o. at 48 h, 24 h, 2 h before and 6 h after CCl4 (1 ml/kg, p.o.), 033 400 mg/kg, 033 (1) and silymarin 50 mg/kg, mean of six animals
[4] = rats, fed p.o. at 48 h, 24 h, 2 h before and 6 h after CCl4 (1 ml/kg, p.o.), 033 400 mg/kg, 033 (1) and silymarin 50 mg/kg, mean of six animals
[5] = rats, fed p.o. at 48 h, 24 h, 2 h before and 6 h after CCl4 (1 ml/kg, p.o.), 033 400 mg/kg, 033 (1) and silymarin 50 mg/kg, mean of six animals, listed as 033(1)
[6] = liver, rats, fed p.o. at 48 h, 24 h, 2 h before and 6 h after GalN (300 mg/kg, s.c.), 033 400 mg/kg, 033 (1) and silymarin 50 mg/kg, mean of six animals
[7] = rats, fed p.o. at 48 h, 24 h, 2 h before and 6 h after GalN (300 mg/kg, s.c.), 033 400 mg/kg, 033 (1) and silymarin 50 mg/kg, mean of six animals

Compound: O=C(OCC1=C[C@@H](O)[C@@H]2C=CO[C@@H](O[C@@H]3O[C@H](CO)[C@@H](O)[C@H](O)[C@H]3O)[C@H]12)c1ccc(O)cc1 [033 (1), 10-O-p-hydroxybenzoylaucubin]
- hepatoprotective activity (in words) ([1]; experimentally induced hepatic damage with CCl4 in rats): marked hepatoprotective activity
- Hepatoprotective activity, hepatic Glutathione (GSH) [1, 3]: 38.12%
- Hepatoprotective activity, hepatic Lipid peroxidation (LP) [1, 3]: 41.48%
- Hepatoprotective activity, serum ALP (table head: Al.F) [1, 4]: 60.2%
- Hepatoprotective activity, serum Bilirubin (table head: Bihrubin (mg %)) [1, 4]: 71.79%
- Hepatoprotective activity, serum GOT (Units) [1, 4]: 57.43%
- Hepatoprotective activity, serum GPT (table head: OPT (Units)) [1, 4]: 59.52%
- Hepatoprotective activity, serum Triglycerides (TG) [1, 4]: 38.53%
- Hepatoprotective activity, serum ALP (table head: Al.F) [1, 5]: 60.17%
- Hepatoprotective activity, serum GOT (Units) [1, 5]: 57.42%
- hepatoprotective activity (in words) ([2]; experimentally induced hepatic damage with galactosamine (GalN) in rats): marked hepatoprotective activity
- Hepatoprotective activity, hepatic Glutathione (GSH) [2, 6]: 55.13%
- Hepatoprotective activity, hepatic Lipid peroxidation (LP) [2, 6]: 48.34%
- Hepatoprotective activity, serum ALP [2, 7]: 66.66%
- Hepatoprotective activity, serum Bilirubin (mg %) [2, 7]: 47.66%
- Hepatoprotective activity, serum GOT (Units) [2, 7]: 44.05%
- Hepatoprotective activity, serum GPT (Units) [2, 7]: 44.97%
- Hepatoprotective activity, serum Triglycerides (mg %) [2, 7]: 49.33%
